Legend:
[1] = Stability on handling and storage; format: physicochemical; settings: handle and store for longer time
Method: (§1) This stable form thus, offers various advantages in terms of storage, shelf life and favorable impurity profile.
(§2) The new stable crystalline Form-SDI is characterized by 3-methylbutan-1-ol content in range of 10-16% w/w. […] 3-methylbutan-1-ol content even on drying for more than 20 hrs at 60-65° C. This offers advantages for large scale manufacturing in terms of handling, storage, shelf life and favorable impurity profile.

[2] = Stability of the crystal form on drying; format: physicochemical; settings: drying for more than 20 hrs at 60-65° C.
Method: as §1, §2

Cc1nc(Nc2ncc(C(=O)Nc3c(C)cccc3Cl)s2)cc(N2CCN(CCO)CC2)n1 [Crystalline Form-SDI of Dasatinib, N-(2-chloro-6-methylphenyl)-2-[[6-[4-(2-hydroxyethyl)-1-piperazinyl]-2-methyl-4-pyrimidinyl]amino]-5-thiazolecarboxamide]
change in morphology and physicochemical characteristics on handling and storage for longer time [1]: without any significant or measurable change | change in morphology and physicochemical characteristics on handling and storage for longer time ([1]; listed as Form-SDI): without any measurable change | stoichiometry (3-methylbutan-1-ol content) on drying [2]: retains its stoichiometry
